In patent US10112937B2, “P2X7 modulators and methods of use” (Janssen Pharmaceutica NV, priority 2013, dated 2018):

Target: human P2X7 (Homo sapiens (Human), UniProt Q99572)
Assay: P2X7 antagonism in human PBMCs (IL-1β release after LPS + Bz-ATP, ELISA)
Type: cell-based
Conditions: for PBMC 10 μM (% control): test compound 10 μM

human P2X7, sequence (Q99572 whole entry): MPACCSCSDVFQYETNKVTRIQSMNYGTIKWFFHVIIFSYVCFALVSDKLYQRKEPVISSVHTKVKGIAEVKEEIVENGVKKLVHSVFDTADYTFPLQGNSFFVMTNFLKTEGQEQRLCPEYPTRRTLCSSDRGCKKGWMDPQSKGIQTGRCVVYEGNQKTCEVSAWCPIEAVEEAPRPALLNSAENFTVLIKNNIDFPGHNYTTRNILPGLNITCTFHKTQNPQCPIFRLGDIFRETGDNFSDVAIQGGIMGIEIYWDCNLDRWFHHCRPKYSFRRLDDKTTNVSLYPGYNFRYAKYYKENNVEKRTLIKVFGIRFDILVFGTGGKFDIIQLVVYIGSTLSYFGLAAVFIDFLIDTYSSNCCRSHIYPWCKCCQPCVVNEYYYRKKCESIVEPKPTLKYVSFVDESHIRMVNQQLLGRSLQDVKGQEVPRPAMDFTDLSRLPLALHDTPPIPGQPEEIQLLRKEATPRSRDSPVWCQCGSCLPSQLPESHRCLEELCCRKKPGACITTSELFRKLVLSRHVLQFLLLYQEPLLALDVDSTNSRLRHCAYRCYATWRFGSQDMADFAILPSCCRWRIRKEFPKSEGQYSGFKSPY

PBMC 10 μM (% control) (human PBMCs) | PBMC 10 μM (% control) (LPS 30 ng/ml + 0.5 mM Bz-ATP) | PBMC 1 μM (% control) (human PBMCs, test compound 1 μM) | SMILES
2.1 | 2.1 |  | C[C@@H]1c2ncn(-c3ccc(F)cc3)c2CCN1C(=O)c1cccc(C(F)(F)F)c1Cl (single isomer, unassigned) [Example 46, (4R*)-5-{[2-Chloro-3-(trifluoromethyl)phenyl]carbonyl}-1-(4-fluorophenyl)-4-methyl-4,5,6,7-tetrahydro-1H-imidazo[4,5-c]pyridine]
−1.1 |  |  | C[C@H]1c2ncn(-c3ccc(F)cc3)c2CCN1C(=O)c1cccc(C(F)(F)F)c1Cl (single isomer, unassigned) [Example 47]
−0.3 |  | 5.2 | C[C@H]1c2nnn(-c3cnccn3)c2CCN1C(=O)c1cccc(C(F)(F)F)c1Cl (single isomer, unassigned) [Example 75, (4S*)-5-{[2-Chloro-3-(trifluoromethyl)phenyl]carbonyl}-4-methyl-1-pyrazin-2-yl-4,5,6,7-tetrahydro-1H-[1,2,3]triazolo[4,5-c]pyridine]
3.3 |  |  | C[C@H]1c2nnn(-c3ncccn3)c2CCN1C(=O)c1cccc(C(F)(F)F)c1Cl (single isomer, unassigned) [Example 87, (4S*)-5-{[2-Chloro-3-(trifluoromethyl)phenyl]carbonyl}-4-methyl-1-pyrimidin-2-yl-4,5,6,7-tetrahydro-1H-[1,2,3]triazolo[4,5-c]pyridine]
18.2 |  |  | CC1c2nnn(-c3ncccn3)c2CCN1C(=O)c1cccc(C(F)(F)F)c1Cl (single isomer, unassigned) [Example 88, (4R*)-5-{[2-Chloro-3-(trifluoromethyl)phenyl]carbonyl}-4-methyl-1-pyrimidin-2-yl-4,5,6,7-tetrahydro-1H-[1,2,3]triazolo[4,5-c]pyridine]
20.0 |  |  | C[C@@H]1Cc2c(nnn2-c2ccccn2)CN1C(=O)c1cccc(C(F)(F)F)c1Cl (single isomer, unassigned) [Example 119, 5-{[2-Chloro-3-(trifluoromethyl)phenyl]carbonyl}-(R*)-6-methyl-1-pyridin-2-yl-4,5,6,7-tetrahydro-1H-[1,2,3]triazolo[4,5-c]pyridine]
−0.2 |  |  | C[C@@H]1c2nnn(-c3cc[nH]n3)c2CCN1C(=O)c1cccc(C(F)(F)F)c1Cl (single isomer, unassigned) [Example 133, (R*)-(2-Chloro-3-(trifluoromethyl)phenyl)(4-methyl-1-(1H-pyrazol-5-yl)-6,7-dihydro-1H-[1,2,3]triazolo[4,5-c]pyridin-5(4H)-yl)methanone]
58.0 |  |  | C[C@@H]1c2nnn(-c3cnccn3)c2CCN1C(=O)c1ccc(F)c(Cl)c1Cl (single isomer, unassigned) [Example 143, (R*)-(2,3-Dichloro-4-fluorophenyl)(4-methyl-1-(pyrazin-2-yl)-6,7-dihydro-1H-[1,2,3]triazolo[4,5-c]pyridin-5(4H)-yl)methanone]
−8.9 |  |  | C[C@H]1c2nnn(-c3cccc(F)n3)c2CCN1C(=O)c1cccc(C(F)(F)F)c1Cl (single isomer, unassigned) [Example 147, (S*)-(2-Chloro-3-(trifluoromethyl)phenyl)(1-(6-fluoropyridin-2-yl)-4-methyl-6,7-dihydro-1H-[1,2,3]triazolo[4,5-c]pyridin-5(4H)-yl)methanone]
−9.6 |  |  | C[C@@H]1c2nnn(-c3cc(F)ccn3)c2CCN1C(=O)c1cccc(C(F)(F)F)c1Cl (single isomer, unassigned) [Example 148, (R*)-(2-Chloro-3-(trifluoromethyl)phenyl)(1-(4-fluoropyridin-2-yl)-4-methyl-6,7-dihydro-1H-[1,2,3]triazolo[4,5-c]pyridin-5(4H)-yl)methanone]
3.5 |  |  | C[C@H]1c2nnn(-c3cc(F)ccn3)c2CCN1C(=O)c1cccc(C(F)(F)F)c1Cl (single isomer, unassigned) [Example 149, (S*)-(2-Chloro-3-(trifluoromethyl)phenyl)(1-(4-fluoropyridin-2-yl)-4-methyl-6,7-dihydro-1H-[1,2,3]triazolo[4,5-c]pyridin-5(4H)-yl)methanone]
−1.4 |  |  | C[C@H]1c2nnn(-c3ncc(F)cn3)c2CCN1C(=O)c1cccc(C(F)(F)F)c1Cl (single isomer, unassigned) [Example 157, (S*)-(2-Chloro-3-(trifluoromethyl)phenyl)(1-(5-fluoropyrimidin-2-yl)-4-methyl-6,7-dihydro-1H-[1,2,3]triazolo[4,5-c]pyridin-5(4H)-yl)methanone]
0.6 |  |  | C[C@H]1Cc2c(nnn2-c2ncccc2F)CN1C(=O)c1cccc(Cl)c1Cl (single isomer, unassigned) [Example 166, (6S*)-5-[(2,3-Dichlorophenyl)carbonyl]-1-(3-fluoropyridin-2-yl)-6-methyl-4,5,6,7-tetrahydro-1H-[1,2,3]triazolo[4,5-c]pyridine]
4.2 |  |  | C[C@@H]1Cc2c(nnn2-c2ncccc2F)CN1C(=O)c1cccc(C(F)(F)F)c1Cl (single isomer, unassigned) [Example 167, (6R*)-5-{[2-Chloro-3-(trifluoromethyl)phenyl]carbonyl}-1-(3-fluoropyridin-2-yl)-6-methyl-4,5,6,7-tetrahydro-1H-[1,2,3]triazolo[4,5-c]pyridine]
−4.2 |  |  | C[C@H]1Cc2c(nnn2-c2ncccc2F)CN1C(=O)c1cccc(C(F)(F)F)c1Cl (single isomer, unassigned) [Example 168, (6S*)-5-{[2-Chloro-3-(trifluoromethyl)phenyl]carbonyl}-1-(3-fluoropyridin-2-yl)-6-methyl-4,5,6,7-tetrahydro-1H-[1,2,3]triazolo[4,5-c]pyridine]
95.0 |  |  | C[C@@H]1c2nnn(-c3ccn(C)n3)c2CCN1C(=O)c1cccc(C(F)(F)F)c1Cl (single isomer, unassigned) [Example 169, (R*)-(2-Chloro-3-(trifluoromethyl)phenyl)(4-methyl-1-(1-methyl-1H-pyrazol-3-yl)-6,7-dihydro-1H-[1,2,3]triazolo[4,5-c]pyridin-5(4H)-yl)methanone]
−5.7 |  |  | C[C@H]1c2nnn(-c3ccn(C)n3)c2CCN1C(=O)c1cccc(C(F)(F)F)c1Cl (single isomer, unassigned) [Example 170, (S*)-(2-Chloro-3-(trifluoromethyl)phenyl)(4-methyl-1-(1-methyl-1H-pyrazol-3-yl)-6,7-dihydro-1H-[1,2,3]triazolo[4,5-c]pyridin-5(4H)-yl)methanone]
−6.0 |  |  | C[C@H]1c2nnn(-c3ccn(CCF)n3)c2CCN1C(=O)c1cccc(C(F)(F)F)c1Cl (single isomer, unassigned) [Example 172, (S*)-(2-Chloro-3-(trifluoromethyl)phenyl)(1-(1-(2-fluoroethyl)-1H-pyrazol-3-yl)-4-methyl-6,7-dihydro-1H-[1,2,3]triazolo[4,5-c]pyridin-5(4H)-yl)methanone]
−4.7 | −4.7 |  | C[C@H]1c2nnn(-c3ncc(F)cn3)c2CCN1C(=O)c1cccc(C(F)(F)F)c1F (single isomer, unassigned) [Example 178, (S*)-(2-fluoro-3-(trifluoromethyl)phenyl)(1-(5-fluoropyrimidin-2-yl)-4-methyl-6,7-dihydro-1H-[1,2,3]triazolo[4,5-c]pyridin-5(4H)-yl)methanone]
−0.1 | −0.1 |  | Cc1cc(C)nc(-n2nnc3c2CCN(C(=O)c2cccc(C(F)(F)F)c2Cl)[C@@H]3C)n1 (single isomer, unassigned) [Example 181, (R*)-(2-chloro-3-(trifluoromethyl)phenyl)(1-(4,6-dimethylpyrimidin-2-yl)-4-methyl-6,7-dihydro-1H-[1,2,3]triazolo[4,5-c]pyridin-5(4H)-yl)methanone]
−1.2 | −1.2 |  | C[C@H]1Cc2c(nnn2-c2ncc(F)cn2)CN1C(=O)c1ccnc(C(F)(F)F)c1Cl (single isomer, unassigned) [Example 183, (R*)-(3-chloro-2-(trifluoromethyl)pyridin-4-yl)(1-(5-fluoropyrimidin-2-yl)-6-methyl-6,7-dihydro-1H-[1,2,3]triazolo[4,5-c]pyridin-5(4H)-yl)methanone]
−3.7 | −3.7 |  | Cc1ccnc(-n2nnc3c2CCN(C(=O)c2cccc(C(F)(F)F)c2Cl)[C@@H]3C)c1 (single isomer, unassigned) [Example 185, (R*)-(2-chloro-3-(trifluoromethyl)phenyl)(4-methyl-1-(4-methylpyridin-2-yl)-6,7-dihydro-1H-[1,2,3]triazolo[4,5-c]pyridin-5(4H)-yl)methanone]
−0.5 | −0.5 |  | Cc1ccnc(-n2nnc3c2CCN(C(=O)c2cccc(C(F)(F)F)c2Cl)[C@H]3C)c1 (single isomer, unassigned) [Example 186, (S*)-(2-chloro-3-(trifluoromethyl)phenyl)(4-methyl-1-(4-methylpyridin-2-yl)-6,7-dihydro-1H-[1,2,3]triazolo[4,5-c]pyridin-5(4H)-yl)methanone]
−0.6 | −0.6 |  | Cc1c(C(=O)N2Cc3nnn(-c4ncc(F)cn4)c3C[C@H]2C)ccnc1C(F)(F)F (single isomer, unassigned) [Example 187, (S*)-(1-(5-fluoropyrimidin-2-yl)-6-methyl-6,7-dihydro-1H-[1,2,3]triazolo[4,5-c]pyridin-5(4H)-yl)(3-methyl-2-(trifluoromethyl)pyridin-4-yl)methanone]

SMILES | PBMC 10 μM (% control) (human PBMCs) | PBMC 10 μM (% control) (LPS 30 ng/ml + 0.5 mM Bz-ATP) | PBMC 1 μM (% control) (human PBMCs, test compound 1 μM)
CC1c2ncn(-c3ccccn3)c2CCN1C(=O)c1cccc(C(F)(F)F)c1F (single isomer, unassigned) [Example 42, (4R*)-5-{[2-Fluoro-3-(trifluoromethyl)phenyl]carbonyl}-4-methyl-1-pyridin-2-yl-4,5,6,7-tetrahydro-1H-imidazo[4,5-c]pyridine] | 5.8 | 5.8 | 
